# Data as given in article PMC12040169 (PLOS Biology, 2025).
# Experiment: in vitro
# Conditions: human, hela cells, % viability
row,SMILES,"viability at 28.5 h, 10 µM"
1,C[C@@H]1CN(C(=O)c2cn(C)c3ccccc23)C[C@H](C)O1 [CBK200235],88.9%
2,O=C(NC1CCCC1)c1ccnc2ccccc12 [CBK200237],92.6%
3,Cc1cc(C(=O)NC2CCCC2)n[nH]1 [CBK200240],94.2%
4,O=C(OCCN1CCOCC1)N1CCN(c2ccccc2)CC1 [CBK200242],90.3%
5,CCN1CCN(C(=O)c2c[nH]c3ccccc23)CC1 [CBK200245],103%
6,CCN1CCN(C(=O)c2cccc3[nH]ccc23)CC1 [CBK200246],110%
7,CCOc1ccsc1C(=O)N1CCN(CC)CC1 [CBK200250],125%
8,CCN1CCN(C(=O)c2c(-c3ccccc3)noc2C)CC1 [CBK200251],96.5%
9,CCN1CCN(C(=O)Cc2ccc(N(C)C)cc2)CC1 [CBK200253],82.2%
10,O=C(NC1Cc2ccccc2C1)c1cncnc1 [CBK200262],119%
11,O=C(c1cnc2ccccc2n1)N1CCC(F)CC1 [CBK200264],93.4%
12,CN1CCN(c2ccc(C(=O)N3CCC(F)CC3)cc2)CC1 [CBK200265],109%
13,Cc1cc2ncn(CC(=O)N3CCC(F)CC3)c2cc1C [CBK200266],104%
14,O=C(c1cncnc1)N1CCc2ccccc21 [CBK200272],102%
15,O=C(Cc1c[nH]c2ccccc12)N1CCC(F)CC1 [CBK200274],118%
16,O=C(CCc1cccnc1)N1CCC(F)CC1 [CBK200275],103%
17,Cc1cc(C(=O)N2CCC(F)CC2)n[nH]1 [CBK200277],109%
18,O=C(c1cccnc1)N1CCc2ccccc21 [CBK200279],121%
19,O=C(c1ccnc2ccccc12)N1CCc2ccccc21 [CBK200283],103%
20,O=C(c1ccc[nH]1)N1CCc2ccccc21 [CBK200285],72.6%
21,CN1CCN(CCOC(=O)N2CCSCC2)CC1 [CBK200288],94.7%
22,Cc1ccc(C(=O)Nc2ccc(C)nc2C)cn1 [CBK200289],89.6%
23,Cc1ccc(NC(=O)c2cnc3ccccc3c2)c(C)n1 [CBK200290],99.1%
24,Cc1ccc(NC(=O)Cc2ccc(N(C)C)cc2)c(C)n1 [CBK200295],104%
25,Cc1ccc(NC(=O)c2nc3ccccc3[nH]2)c(C)n1 [CBK200296],94.4%
26,Cc1noc(C)c1NC(=O)c1ccccn1 [CBK200299],95.6%

row,SMILES,"viability at 28.5 h, 10 µM"
1,COc1ccc(C(=O)Nc2c(C)noc2C)c(OC)n1 [CBK200300],104%
2,Cc1noc(C)c1NC(=O)c1n[nH]c2ccccc12 [CBK200301],104%
3,Cc1noc(C)c1NC(=O)c1cccn1C [CBK200304],101%
4,Cc1noc(C)c1NC(=O)c1c(C)noc1C [CBK200305],96.4%
5,Cc1noc(C)c1NC(=O)c1cnccc1C(F)(F)F [CBK200306],99.1%
6,COc1ncccc1C(=O)Nc1c(C)noc1C [CBK200307],103%
7,Cc1noc(C)c1NC(=O)c1ccc2ncccc2c1 [CBK200308],104%
8,Cc1noc(C)c1NC(=O)c1nccc2ccccc12 [CBK200310],93.3%
9,Cc1noc(C)c1NC(=O)c1cc2ccccc2n1C [CBK200311],108%
10,Cc1noc(C)c1NC(=O)c1cn(C)c2ccccc12 [CBK200312],87.3%
11,Cc1nc(C)c(C(=O)Nc2c(C)noc2C)s1 [CBK200313],105%
12,Cc1noc(C)c1NC(=O)c1c(-c2ccccc2)noc1C [CBK200314],91.8%
13,COc1ccc(C(=O)N2Cc3ccccc3C2)c(OC)n1 [CBK200317],103%
14,O=C(c1n[nH]c2ccccc12)N1CCc2ccccc2C1 [CBK200330],94.4%
15,O=C(c1c[nH]c2ccccc12)N1CCc2ccccc2C1 [CBK200331],113%
16,Cn1cc(C(=O)N2CCc3ccccc3C2)c2ccccc21 [CBK200338],90%
17,CN(C)c1ccc(CC(=O)N2CCc3ccccc3C2)cc1 [CBK200340],93.7%
18,O=C(c1nc2ccccc2[nH]1)N1CCc2ccccc2C1 [CBK200341],100%
19,O=C(c1cscn1)N1CCc2ccccc2C1 [CBK200342],96.6%
20,O=C(Cc1ccccn1)N1CCCc2ccccc21 [CBK200343],105%
21,O=C(CCc1cccnc1)N1CCCc2ccccc21 [CBK200344],100%
22,Cc1nc(C)c(C(=O)N2CCCc3ccccc32)s1 [CBK200345],112%
23,CN(C)c1ccc(CC(=O)N2CCCc3ccccc32)cc1 [CBK200347],83.6%
24,Cc1noc(C)c1C(=O)NC1Cc2ccccc2C1 [CBK200350],91.4%
25,O=C(CCc1cccnc1)NC1Cc2ccccc2C1 [CBK200352],97.4%
26,O=C(NC1Cc2ccccc2C1)c1cnccc1C(F)(F)F [CBK200353],98.6%

row,SMILES,"viability at 28.5 h, 10 µM"
1,O=C(NC1Cc2ccccc2C1)c1ccc2ncccc2c1 [CBK200354],96.2%
2,O=C(NC1Cc2ccccc2C1)c1ccc2ccccc2n1 [CBK200355],81.8%
3,Cc1nc(C)c(C(=O)NC2Cc3ccccc3C2)s1 [CBK200357],91.2%
4,O=C(NC1Cc2ccccc2C1)c1nc2ccccc2[nH]1 [CBK200361],102%
5,O=C(NC1Cc2ccccc2C1)c1cscn1 [CBK200363],93.5%
6,O=C(CCN1CCCCC1)NC1Cc2ccccc2C1 [CBK200364],98.3%
7,O=C(NCc1ccccc1)c1ccc2[nH]nnc2c1 [CBK200368],86.9%
8,C[C@@H]1CN(C(=O)c2cncn2C)C[C@H](C)O1 [CBK200370],90.3%
9,C[C@@H]1CN(C(=O)c2cscn2)C[C@H](C)O1 [CBK200371],90%
10,O=C(Cn1cnnn1)NC1CCCC1 [CBK200372],94.9%
11,CCN1CCN(C(=O)c2cnccn2)CC1 [CBK200373],81.6%
12,CCN1CCN(C(=O)c2csnn2)CC1 [CBK200376],92.5%
13,CCN1CCN(C(=O)c2cc(C)[nH]n2)CC1 [CBK200377],108%
14,CCN1CCN(C(=O)COc2cccnc2)CC1 [CBK200378],94.8%
15,Cc1ccc(NC(=O)c2cncnc2)c(C)n1 [CBK200380],81.1%
16,Cc1noc(C)c1NC(=O)CN1CCOCC1 [CBK200381],103%
17,Cc1ccc(NC(=O)Cc2ccncc2)c(C)n1 [CBK200385],90%
18,Cc1ccc(NC(=O)CCc2cccnc2)c(C)n1 [CBK200386],101%
19,Cc1ccc(NC(=O)CN(C)C)c(C)n1 [CBK200388],99.6%
20,Cc1noc(C)c1NC(=O)c1ccncc1 [CBK200389],89.9%
21,Cc1noc(C)c1NC(=O)CCc1cccnc1 [CBK200392],99.6%
22,Cc1cc(C(=O)Nc2c(C)noc2C)n[nH]1 [CBK200395],87.4%
23,Cc1noc(C)c1NC(=O)c1cscn1 [CBK200397],95.2%
24,Cc1ncccc1C(=O)N1CCC(F)CC1 [CBK200398],85.4%
25,COCCC(=O)N1CCC(F)CC1 [CBK200399],99.1%
26,O=C(c1cnccc1C(F)(F)F)N1CCc2ccccc21 [CBK200401],112%

row,SMILES,"viability at 28.5 h, 10 µM"
1,O=C(c1ccc2ncccc2c1)N1CCc2ccccc21 [CBK200403],81.8%
2,O=C(c1ccc2ccccc2n1)N1CCc2ccccc21 [CBK200404],94%
3,Cn1cc(C(=O)N2CCc3ccccc32)c2ccccc21 [CBK200407],80.6%
4,O=C(c1csnn1)N1CCc2ccccc21 [CBK200408],86%
5,O=C(c1ccno1)N1CCc2ccccc21 [CBK200409],104%
6,CCOc1ccsc1C(=O)N1CCc2ccccc21 [CBK200410],100%
7,O=C(CCN1CCCCC1)N1CCc2ccccc21 [CBK200413],91.1%
8,COC(=O)N1CCN(c2ccccc2)CC1 [CBK200414],85.5%
9,C[C@@H]1CN(C(=O)OCCc2cccs2)C[C@H](C)O1 [CBK200416],95.5%
10,Cc1ncsc1CCOC(=O)N1C[C@@H](C)O[C@@H](C)C1 [CBK200418],96.3%
11,CN1CCN(CCOC(=O)N2CCN(C(c3ccccc3)c3ccccc3)CC2)CC1 [CBK200419],89%
12,Nc1ncc(-c2cccc(C(=O)O)c2)nc1-c1ccc(O)cc1 [CBK200420],107%
13,CN1CCN(C(=O)c2ccc(-c3cnc(N)c(-c4ccc(O)cc4)n3)cc2F)CC1 [CBK200421],90.6%
14,Nc1ncc(-c2ccc(C(=O)N3CCOCC3)cc2)nc1-c1ccsc1 [CBK200422],110%
15,O=C(O)c1cccc(NS(=O)(=O)c2cc3ccccc3o2)c1 [CBK200423],97.4%
16,CN1CCC(N(C)C(=O)c2cc3oc(-c4ccccc4)nc3c(=O)n2C)C1 (stereo not drawn) [CBK200424T],93.9%
17,CN1CCN(c2ccc(NC(=O)c3cc4oc(-c5ccccc5)nc4c(=O)n3C)cc2)CC1 [CBK200425],94.9%
18,CNc1ncnc2c1ncn2[C@@H]1O[C@H](CO)[C@@H](O)[C@H]1O [CBK200610],101%
19,Cn1c(=O)c2c(ncn2CC(O)CO)n(C)c1=O (stereo not drawn) [CBK200637],98.5%
20,CN(C)CC/C=C1/c2ccccc2COc2ccc(CC(=O)O)cc21 [CBK200992],92.4%
21,Nc1nccc2c1ncn2[C@H]1C[C@@H](O)[C@@H](CO)O1 [CBK201157],97.1%
22,O=c1cnn([C@H]2C[C@@H](O)[C@@H](CO)O2)c(=O)[nH]1 [CBK201162],93.4%
23,O=[N+]([O-])c1ccc2c(ccn2C2CC(O)C(CO)O2)c1 (stereo not drawn) [CBK201163],95%
24,COC1C(O)C(CO)OC1n1ccc(=O)[nH]c1=O (stereo not drawn) [CBK201166],93.6%
